Experimental findings from US9730937B2, “RAF kinase modulator compounds and methods of use thereof” (AMBIT BIOSCIENCES CORPORATION, priority 2008, dated 2017) are described below.

The structures appear in SMILES notation. Where a name gives a salt, the structure may show the parent alone.

One test has as its system panel of 290 distinct kinases (321 in the larger panel), excluding mutant variants. The following applies: asterisk: panel of 321 distinct kinases.
As to `COCCOc1cc2ncnc(Oc3cccc(NC(=O)Nc4cc(C(F)(F)F)no4)c3)c2cc1OC` [Ex 229, 1-(3-(6-methoxy-7-(2-methoxyethoxy)quinazolin-4-yloxy)phenyl)-3-(3-(trifluoromethyl)isoxazol-5-yl)urea], the S35 entry is “C* (0.20 < C ≦ 0.40)”. `COCCOc1cc2ncnc(Oc3cccc(NC(=O)Nc4cc(C5CCCC5)on4)c3)c2cc1OC` [Ex 219, 1-(5-cyclopentylisoxazol-3-yl)-3-(3-(6-methoxy-7-(2-methoxyethoxy)quinazolin-4-yloxy)phenyl)urea]: the S35 entry is given as “C* (0.20 < C ≦ 0.40)”. The same measure, in the same setting: the entry for `COCCOc1cc2ncnc(Oc3cccc(NC(=O)Nc4cc(C(C)(C)C)nn4-c4ccccc4)c3)c2cc1OC` [Ex 210, 1-(3-tert-butyl-1-phenyl-1H-pyrazol-5-yl)-3-(3-(6-methoxy-7-(2-methoxyethoxy)quinazolin-4-yloxy)phenyl)urea] is “D* (D > 0.40)”; for `CCOC(=O)Cn1nc(C(C)(C)C)cc1NC(=O)Nc1cccc(Oc2ncnc3cc(OCCOC)c(OC)cc23)c1` [Ex 224, ethyl 2-[3-tert-butyl-5-(3-{3-[6-methoxy-7-(2-methoxyethoxy)quinazolin-4-yloxy]phenyl}ureido)-1H-pyrazol-1-yl]acetate hydrochloride] it is “A* (A ≦ 0.10)”; for `COCCOc1cc2ncnc(Oc3cccc(NC(=O)Nc4cc(C(C)(CF)CF)nn4-c4ccccc4)c3)c2cc1OC` [Ex 228, 1-[3-(1,3-difluoro-2-methylpropan-2-yl)-1-phenyl-1H-pyrazol-5-yl]-3-{3-[6-methoxy-7-(2-methoxyethoxy)quinazolin-4-yloxy]phenyl}urea] it is “D* (D > 0.40)”.

Turning to `COc1cc2c(Oc3cccc(NC(=O)Nc4cc(C(C)(C)F)no4)c3)ncnc2cc1OCCN1CCOCC1` [Ex 251, 1-(3-(2-fluoropropan-2-yl)isoxazol-5-yl)-3-(3-(6-methoxy-7-(2-morpholinoethoxy)quinazolin-4-yloxy)phenyl)urea], the S35 result is “C* (0.20 < C ≦ 0.40)”. On the same count and under the same terms, the same measure for `COCCOc1cc2ncnc(Sc3cccc(NC(=O)Nc4cc(C(F)(F)F)nn4-c4ccc(F)cc4)c3)c2cc1OC` [Ex 242, 1-[1-(4-fluorophenyl)-3-(trifluoromethyl)-1H-pyrazol-5-yl]-3-{3-[6-methoxy-7-(2-methoxyethoxy)quinazolin-4-ylthio]phenyl}urea]: “C* (0.20 < C ≦ 0.40)”. As for `COCCOc1cc2ncnc(Sc3cccc(NC(=O)Nc4cc(C(F)(F)F)nn4-c4ccc(C)cc4)c3)c2cc1OC` [Ex 243, 1-{3-[6-methoxy-7-(2-methoxyethoxy)quinazolin-4-ylthio]phenyl}-3-[1-p-tolyl-3-(trifluoromethyl)-1H-pyrazol-5-yl]urea], the S35 result is on record as “C* (0.20 < C ≦ 0.40)”. `COCCOc1cc2ncnc(Oc3cccc(NC(=O)Nc4cc(C5CC5)no4)c3)c2cc1OC` [Ex 214, 1-(3-cyclopropylisoxazol-5-yl)-3-(3-(6-methoxy-7-(2-methoxyethoxy)quinazolin-4-yloxy)phenyl)urea]: the S35 entry was “C* (0.20 < C ≦ 0.40)”. For the compound `COCCOc1cc2ncnc(Sc3cccc(NC(=O)Nc4cc(C(C)(CF)CF)on4)c3)c2cc1OC` [Ex 230, 1-[5-(1,3-difluoro-2-methylpropan-2-yl)isoxazol-3-yl]-3-{3-[6-methoxy-7-(2-methoxyethoxy)quinazolin-4-ylthio]phenyl}urea], the S35 entry is recorded as “C* (0.20 < C ≦ 0.40)”.

Staying with this test, now noted: kinase selectivity score, 290 distinct kinases; class symbols.
Take `COCCOc1cc2ncnc(Oc3cccc(NC(=O)Nc4cc(-c5ccccc5)on4)c3)c2cc1OC` [Ex 203, 1-(3-(6-methoxy-7-(2-methoxyethoxy)quinazolin-4-yloxy)phenyl)-3-(5-phenylisoxazol-3-yl)urea]: the S35 result is “B (0.10 < B ≦ 0.20)”. Consider `COc1cc(NC(=O)Nc2cccc(Sc3ncnc4cc(OC)c(OC)cc34)c2)cc(C(F)(F)F)c1` [Ex 115, 1-(3-(6,7-dimethoxyquinazolin-4-ylthio)phenyl)-3-(3-methoxy-5-(trifluoromethyl)phenyl)urea], for which the S35 result was “C (0.20 < C ≦ 0.40)”.

Staying with this test, now noted: no asterisk: panel of 290 distinct kinases.
Turning to `COc1cc2ncnc(Oc3cccc(NC(=O)Nc4cc(C(C)(C)C(F)(F)F)on4)c3)c2cc1OC` [Ex 259, 1-(3-(6,7-dimethoxyquinazolin-4-yloxy)phenyl)-3-(5-(1,1,1-trifluoro-2-methylpropan-2-yl)isoxazol-3-yl)urea], the S35 entry is given as “C (0.20 < C ≦ 0.40)”. In the case of `CCOc1cc2ncnc(Sc3cccc(NC(=O)Nc4cc(C(C)(C)F)no4)c3)c2cc1OC` [Ex 389, 1-(3-(7-ethoxy-6-methoxyquinazolin-4-ylthio)phenyl)-3-(3-(2-fluoropropan-2-yl)isoxazol-5-yl)urea], the S35 result is on record as “C (0.20 < C ≦ 0.40)”. As to `COCCOc1cc2ncnc(Sc3cccc(NC(=O)Nc4cc(C(C)(C)C)no4)c3)c2cc1OCCOC` [Ex 247, 1-(3-(6,7-bis(2-methoxyethoxy)quinazolin-4-ylthio)phenyl)-3-(3-tert-butylisoxazol-5-yl)urea], the S35 result is reported as “C (0.20 < C ≦ 0.40)”. Regarding `COc1cc2ncnc(Oc3cc(NC(=O)Nc4cc(C(F)(F)F)nn4-c4ccccc4)ccc3F)c2cc1OC` [Ex 397, 1-(3-(6,7-Dimethoxyquinazolin-4-yloxy)-4-fluorophenyl)-3-(1-phenyl-3-(trifluoromethyl)-1H-pyrazol-5-yl)urea], the S35 result is reported as “C (0.20 < C ≦ 0.40)”.

With `COc1cc2ncnc(Sc3cccc(NC(=O)Nc4cc(C(C)(C)C#N)no4)c3)c2cc1OC` [Ex 381, 1-(3-(2-cyanopropan-2-yl)isoxazol-5-yl)-3-(3-(6,7-dimethoxyquinazolin-4-ylthio)phenyl)urea], the S35 result is “C (0.20 < C ≦ 0.40)”. In the case of `CCOc1cc2ncnc(Oc3cccc(NC(=O)Nc4cc(C(F)(F)F)nn4-c4ccccc4)c3)c2cc1OC` [Example 384, 1-(3-(7-ethoxy-6-methoxyquinazolin-4-yloxy)phenyl)-3-(1-phenyl-3-(trifluoromethyl)-1H-pyrazol-5-yl)urea], the S35 result is on record as “C (0.20 < C ≦ 0.40)”.

Turning to `COCCOc1cc2ncnc(Sc3cccc(NC(=O)Nc4cc(C(C)(C)C)nn4-c4ccc(C)cc4)c3)c2cc1OC` [Ex 277, 1-(3-tert-butyl-1-p-tolyl-1H-pyrazol-5-yl)-3-(3-(6-methoxy-7-(2-methoxyethoxy)quinazolin-4-ylthio)phenyl)urea], the S35 result was “D (D > 0.40)”. In the case of `COc1cc2ncnc(Sc3cccc(NC(=O)Nc4cc(C(F)(F)F)no4)c3)c2cc1OC` [Ex 382, 1-(3-(6,7-dimethoxyquinazolin-4-ylthio)phenyl)-3-(3-(trifluoromethyl)isoxazol-5-yl)urea], the S35 result was “C (0.20 < C ≦ 0.40)”.

For `COc1cc2ncnc(Oc3cccc(NC(=O)Nc4cc(C(C)(C)C)nn4-c4ccc(C)cc4)c3)c2cc1OC` [Ex 274, 1-(3-tert-butyl-1-p-tolyl-1H-pyrazol-5-yl)-3-(3-(6,7-dimethoxyquinazolin-4-yloxy)phenyl)urea], the S35 entry is recorded as “D (D > 0.40)”. Regarding `CCOc1cc2c(Oc3cccc(NC(=O)Nc4cc(C(C)(C)C)nn4-c4ccccc4)c3)ncnc2cc1OC` [Ex 390, 1-(3-tert-butyl-1-phenyl-1H-pyrazol-5-yl)-3-(3-(6-ethoxy-7-methoxyquinazolin-4-yloxy)phenyl)urea], the S35 result is “D (D > 0.40)”.

In the case of `COc1cc2ncnc([S+]([O-])c3cccc(NC(=O)Nc4cc(C(C)(C)C)on4)c3)c2cc1OC` (centres unmarked) [Ex 253, 1-(5-tert-butylisoxazol-3-yl)-3-(3-(6,7-dimethoxyquinazolin-4-ylsulfinyl)phenyl)urea], the S35 result is “C (0.20 < C ≦ 0.40)”. Take `COc1cc2ncnc(Sc3cccc(NC(=O)Nc4cc(C(C)(C)C)nn4-c4cccc(C(F)(F)F)c4)c3)c2cc1OC` [Ex 380, 1-(3-tert-butyl-1-(3-(trifluoromethyl)phenyl)-1H-pyrazol-5-yl)-3-(3-(6,7-dimethoxyquinazolin-4-ylthio)phenyl)urea]: the S35 entry was “C (0.20 < C ≦ 0.40)”.

In the case of `CCOc1cc2ncnc(Oc3cccc(NC(=O)Nc4cc(C(C)(C)C)nn4-c4ccccc4)c3)c2cc1OC` [Ex 387, 1-(3-tert-butyl-1-phenyl-1H-pyrazol-5-yl)-3-(3-(7-ethoxy-6-methoxyquinazolin-4-yloxy)phenyl)urea], the S35 entry is given as “D (D > 0.40)”. Turning to `COc1cc2ncnc(Oc3cc(NC(=O)Nc4cc(C(C)(C)C(F)(F)F)on4)ccc3F)c2cc1OC` [Ex 266, 1-(3-(6,7-dimethoxyquinazolin-4-yloxy)-4-fluorophenyl)-3-(5-(1,1,1-trifluoro-2-methylpropan-2-yl)isoxazol-3-yl)urea], the S35 entry was “C (0.20 < C ≦ 0.40)”.

With `COc1cc2ncnc(Oc3cccc(NC(=O)Nc4cc(C5(C(F)(F)F)CC5)on4)c3)c2cc1OC` [Ex 377, 1-(3-(6,7-dimethoxyquinazolin-4-yloxy)phenyl)-3-(5-(1-(trifluoromethyl)cyclopropyl)isoxazol-3-yl)urea], the S35 result is on record as “C (0.20 < C ≦ 0.40)”. For the compound `CCOc1cc2c(Sc3cccc(NC(=O)Nc4cc(C(C)(C)F)no4)c3)ncnc2cc1OC` [Ex 394, 1-(3-(6-ethoxy-7-methoxyquinazolin-4-ylthio)phenyl)-3-(3-(2-fluoropropan-2-yl)isoxazol-5-yl)urea], the S35 result is “C (0.20 < C ≦ 0.40)”. `COCCOc1cc2ncnc(Sc3cccc(NC(=O)Nc4cc(C(C)(C)C)nn4-c4cccc(C)c4)c3)c2cc1OC` [Ex 287, 1-(3-tert-butyl-1-m-tolyl-1H-pyrazol-5-yl)-3-(3-(6-methoxy-7-(2-methoxyethoxy)quinazolin-4-ylthio)phenyl)urea]: the S35 entry was “D (D > 0.40)”. The same measure, in the same setting: the entry for `COc1ccc(-n2nc(C(C)(C)C)cc2NC(=O)Nc2cccc(Sc3ncnc4cc(OC)c(OC)cc34)c2)cc1` [Ex 362, 1-(3-tert-butyl-1-(4-methoxyphenyl)-1H-pyrazol-5-yl)-3-(3-(6,7-dimethoxyquinazolin-4-ylthio)phenyl)urea] is “D (D > 0.40)”. For `COc1cc2c(Oc3cccc(NC(=O)Nc4cc(C(C)(C)C(F)(F)F)on4)c3)ncnc2cc1O` [Ex 263, 1-(3-(7-hydroxy-6-methoxyquinazolin-4-yloxy)phenyl)-3-(5-(1,1,1-trifluoro-2-methylpropan-2-yl)isoxazol-3-yl)urea], the S35 result is reported as “C (0.20 < C ≦ 0.40)”. As for `COc1cc2ncnc(Oc3cccc(NC(=O)Nc4cc(C(C)(C)C)on4)c3C)c2cc1OC` [Ex 290, 1-(5-tert-butylisoxazol-3-yl)-3-(3-(6,7-dimethoxyquinazolin-4-yloxy)-2-methylphenyl)urea], the S35 entry is given as “C (0.20 < C ≦ 0.40)”.
